This is an account of results in ChEMBL document CHEMBL1152625, “Pochonicine, a polyhydroxylated pyrrolizidine alkaloid from fungus Pochonia suchlasporia var. suchlasporia TAMA 87 as a potent beta-N-acetylglucosaminidase inhibitor” (Bioorg Med Chem, 2009).

The source made the active and inactive calls. The calls are words filed in the database; no cut-off is given here.

Experiment [1] is described as follows: Inhibition of jack bean beta-N-acetylglucosaminidase by pNP-GlcNAc substrate hydrolysis assay. Further details: species or system Canavalia ensiformis.
Experiment [2] can be described thus: Inhibition of bovine kidney beta-N-acetylglucosaminidase by pNP-GlcNAc substrate hydrolysis assay. Further details: species or system Bos taurus.
The nature of experiment [3]: Competitive inhibition of Aspergillus oryzae beta-N-acetylglucosaminidase by pNP-GlcNAc substrate hydrolysis assay.
A short description of experiment [4]: Inhibition of Penicillium oxalicum beta-N-acetylglucosaminidase by pNP-GlcNAc substrate hydrolysis assay.
A short description of experiment [5]: Competitive inhibition of bovine kidney beta-N-acetylglucosaminidase by pNP-GlcNAc substrate hydrolysis assay. More on the design: species or system Bos taurus.
Experiment [6] can be described thus: Competitive inhibition of jack bean beta-N-acetylglucosaminidase by pNP-GlcNAc substrate hydrolysis assay. Further details: species or system Canavalia ensiformis.
Experiment [7] is described as follows: Competitive inhibition of Penicillium oxalicum beta-N-acetylglucosaminidase by pNP-GlcNAc substrate hydrolysis assay.
The nature of experiment [8]: Competitive inhibition of Spodoptera litura beta-N-acetylglucosaminidase by pNP-GlcNAc substrate hydrolysis assay.
Experiment [9] in a line: Inhibition of Spodoptera litura beta-N-acetylglucosaminidase by pNP-GlcNAc substrate hydrolysis assay.
Experiment [10] in a line: Inhibition of Aspergillus oryzae beta-N-acetylglucosaminidase by pNP-GlcNAc substrate hydrolysis assay.
Experiment [11] in a line: Noncompetitive inhibition of bovine kidney beta-N-acetylglucosaminidase by pNP-GlcNAc substrate hydrolysis assay. Further details: species or system Bos taurus.
The subject of another experiment is Bacillus sp. Description: Inhibition of Bacillus sp. chitinase at 209 uM by pNP-GlcNAc2 substrate hydrolysis assay.
The next experiment deals with Saccharomyces cerevisiae. Description: Inhibition of yeast alpha-glucosidase at 2.38 uM by […] substrate hydrolysis assay.
Experiment [12] is described as follows: Mixed type inhibition of Penicillium oxalicum beta-N-acetylglucosaminidase by pNP-GlcNAc substrate hydrolysis assay.
For another experiment, the system named is Prunus dulcis. Description: Inhibition of almond beta-glucosidase at 2.38 uM by pNP-beta-Glc substrate hydrolysis assay.
A short description of experiment [13]: Noncompetitive inhibition of Aspergillus oryzae beta-N-acetylglucosaminidase by pNP-GlcNAc substrate hydrolysis assay.

On to `CC(=O)NC[C@@H]1N[C@H](CO)[C@@H](O)[C@@H]1O`, for which the Ki (in general, the equilibrium dissociation constant of an inhibitor or competing ligand from its target) in [1] is 3600 nM; in [2], 68600 nM.
The corresponding values for `CC(=O)NC[C@H]1N[C@H](CO)[C@@H](O)[C@@H]1O` are 1900 nM and 9800 nM.
In the case of `CC(=O)N[C@H]1c2nc(CC(=O)O)cn2[C@H](CO)[C@H](O)[C@@H]1O` [NAGSTATIN], the Ki turned out to be 9.69 nM in experiment [3]; 1.64 nM in experiment [5]; 1.41 nM in [6]; 8.11 nM in experiment [7]; 1.1 nM in experiment [8]. Further, the IC50 – broadly, the concentration needed to halve the response being measured – in [4] is 60.6 nM; in experiment [2], 1.71 nM; in experiment [9], 5.85 nM; in experiment [10], 10.6 nM.
Take `CC(=O)NC[C@H]1[C@H](O)[C@H](O)[C@@H]2[C@H](O)C[C@@H](CO)N21` (relative stereo) [POCHONICINE]: the IC50 in experiment [1] worked out at 0.288 nM; in experiment [4], 42.1 nM; in experiment [2], 1.06 nM; in experiment [9] it was 5.96 nM; in experiment [10] it was 20.3 nM. Besides, the Ki in [11] is 1.04 nM; in [6], 0.162 nM; in experiment [12], 13.2 nM; in [8], 1.77 nM; in experiment [13], 141 nM. Besides, the result with Bacillus sp., in the experiment on Saccharomyces cerevisiae and in the experiment on Prunus dulcis was inactive.
